How the values were obtained:
Test in all cases: relative cell growth vs untreated control (GI, NCI-DTP normalisation with time-zero) (fraction of control growth); higher = more growth / less inhibition
Settings in all cases: treatment time: 120 h
[1] = test system: MDAMB435
Description: (§1)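 Cancer cell lines in 96-well plates were treated 48 h after seeding with M4076 (ATM inhibitor) and berzosertib (ATR inhibitor), alone or mixed, in 4-fold dilutions for 120 h. Protein was read by sulforhodamine B staining, background-subtracted and normalised NCI-DTP style to untreated control growth. Rows with one concentration equal to 0 are monotherapy.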

[2] = test system: MDAMB231
Description: as §1

[3] = test system: BXPC3
Description: as §1

[4] = test system: A549
Description: as §1

[5] = test system: RAMOS
Description: as §1

[6] = test system: RDES
Description: as §1

[7] = test system: NCIH460
Description: as §1

[8] = test system: MDAMB436
Description: as §1

[9] = test system: MIAPACA2
Description: as §1

[10] = test system: DU145
Description: as §1

COc1cc2ncc3c(c2cc1-c1cn(C)nc1C)n(-c1c(F)cncc1OC)c(=O)n3C [M4076] + CNCc1ccc(-c2cc(-c3nc(-c4ccc(S(=O)(=O)C(C)C)cc4)cnc3N)on2)cc1 [berzosertib]
relative cell growth
Settings | [1] | [2] | [3] | [4] | [5] | [6] | [7] | [8] | [9] | [10]
concentration of first compound 0.0195 µM, concentration of partner 0 M | 1.09 | 1.06 | 1.17 | 1.18 | 1.04 | 1.1 | 1.14 | 1.1 | 1.08 | 1.09
concentration of first compound 0.0195 µM, concentration of partner 0.2 µM | 1.01 | 1.1 | 0.548 | 0.64 | 1.14 | 1.16 | 0.607 | 0.856 | 0.643 | 1.05
concentration of first compound 0.0781 µM, concentration of partner 0 M | 1.09 | 1.02 | 1.25 | 1.22 | 1.12 | 1.01 | 1.16 | 1.15 | 1.17 | 1.12
concentration of first compound 0.0781 µM, concentration of partner 0.2 µM | 1.05 | 0.932 | 0.643 | 0.574 | 1.17 | 1.16 | 0.678 | 0.625 | 0.542 | 1.09
concentration of first compound 0.313 µM, concentration of partner 0 M | 1.04 | 0.93 | 1.17 | 1.16 | 1.01 | 0.941 | 1.14 | 0.941 | 1.03 | 1.11
concentration of first compound 0.313 µM, concentration of partner 0.2 µM | 0.622 | 0.499 | 0.481 | 0.267 | 1.12 | 1.13 | 0.354 | 0.374 | 0.269 | 0.774
concentration of first compound 1 µM, concentration of partner 0 M | 0.988 | 0.858 | 0.952 | 0.924 | 0.888 | 0.836 | 0.972 | 0.753 | 1.08 | 0.98
concentration of first compound 1 µM, concentration of partner 0.0195 µM | 1.01 | 0.907 | 0.987 | 0.89 | 0.918 | 0.933 | 0.969 | 0.817 | 0.891 | 0.893
concentration of first compound 1 µM, concentration of partner 0.0781 µM | 0.701 | 0.708 | 0.78 | 0.431 | 0.945 | 0.872 | 0.79 | 0.574 | 0.439 | 0.862
concentration of first compound 1 µM, concentration of partner 0.313 µM | 0.14 | 0.198 | 0.015 | 0.0877 | 0.751 | 0.395 | 0.0691 | 0.148 | 0.061 | 0.133
concentration of first compound 1 µM, concentration of partner 1.25 µM | -0.00922 | -0.00535 | -0.096 | 0.00284 | 0.0625 | 0.0966 | -0.00904 | -0.0222 | 0.0345 | -0.0604
concentration of first compound 1 µM, concentration of partner 5 µM | -0.0254 | -0.032 | -0.0967 | 0.00285 | 0.0153 | -0.0939 | -0.0222 | -0.02 | -0.0126 | -0.0855
concentration of first compound 1.25 µM, concentration of partner 0 M | 1.03 | 0.775 | 1.08 | 1.09 | 0.914 | 0.877 | 1.11 | 0.84 | 1.18 | 1.05
concentration of first compound 1.25 µM, concentration of partner 0.2 µM | 0.411 | 0.328 | 0.321 | 0.153 | 1.09 | 0.973 | 0.199 | 0.292 | 0.126 | 0.496
concentration of first compound 5 µM, concentration of partner 0 M | 0.92 | 0.695 | 0.894 | 0.955 | 0.778 | 0.681 | 1.06 | 0.684 | 1.09 | 0.872
concentration of first compound 5 µM, concentration of partner 0.2 µM | 0.185 | 0.42 | 0.228 | 0.11 | 0.915 | 0.706 | 0.203 | 0.206 | 0.157 | 0.307

CNCc1ccc(-c2cc(-c3nc(-c4ccc(S(=O)(=O)C(C)C)cc4)cnc3N)on2)cc1 [berzosertib] + COc1cc2ncc3c(c2cc1-c1cn(C)nc1C)n(-c1c(F)cncc1OC)c(=O)n3C [M4076]
relative cell growth, concentration of partner 0 M
Settings | [1] | [2] | [3] | [4] | [5] | [6] | [7] | [8] | [9] | [10]
concentration of first compound 0.0195 µM | 1.07 | 1.06 | 1.18 | 1.22 | 1.1 | 1.15 | 1.12 | 1.03 | 1.06 | 1.08
concentration of first compound 0.0781 µM | 1.06 | 1.09 | 1.14 | 0.999 | 1.11 | 1.14 | 1.09 | 1.13 | 0.974 | 1.13
concentration of first compound 0.2 µM | 0.893 | 0.976 | 0.588 | 0.464 | 1.16 | 1.01 | 0.607 | 0.673 | 0.661 | 1.03
concentration of first compound 0.313 µM | 0.656 | 0.775 | 0.34 | 0.294 | 1.05 | 0.873 | 0.357 | 0.386 | 0.235 | 0.825
concentration of first compound 1.25 µM | -0.0138 | 0.0906 | -0.112 | 0.0316 | 0.322 | 0.254 | 0.0867 | 0.0232 | 0.0129 | -0.0103
concentration of first compound 5 µM | -0.0273 | -0.057 | -0.0824 | -0.00795 | 0.103 | -0.0925 | 0.0406 | -0.0352 | -0.0366 | -0.0587
